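GI50 marks 50% less growth. The concentration for full growth arrest is given as TGI.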
Legend:
Assay in all cases: NCI anticancer screen, dose series, 384-well format
[1] = test system: 786-0 renal
[2] = test system: A498 renal
[3] = test system: A549 NSCLC
[4] = test system: ACHN renal
[5] = test system: BT-549 breast
[6] = test system: CAKI-1 renal
[7] = test system: CCRF-CEM leukemia
[8] = test system: DU-145 prostate
[9] = test system: EKVX NSCLC
[10] = test system: HCT-116 colon
[11] = test system: HCT-15 colon
[12] = test system: HL-60(TB) leukemia
[13] = test system: HOP-62 NSCLC
[14] = test system: HOP-92 NSCLC
[15] = test system: HS 578T breast
[16] = test system: HT29 colon
[17] = test system: IGROV1 ovarian
[18] = test system: K-562 leukemia
[19] = test system: KM12 colon
[20] = test system: LOX IMVI melanoma
[21] = test system: M14 melanoma
[22] = test system: MALME-3M melanoma
[23] = test system: MCF7 breast
[24] = test system: MDA-MB-231 breast
[25] = test system: MDA-MB-435 melanoma
[26] = test system: MDA-MB-468 breast
[27] = test system: MOLT-4 leukemia
[28] = test system: NCI-H226 lung
[29] = test system: NCI-H23 lung
[30] = test system: NCI-H322M lung
[31] = test system: NCI-H522 lung
[32] = test system: NCI/ADR-RES ovarian
[33] = test system: OVCAR-3 ovarian
[34] = test system: OVCAR-4 ovarian
[35] = test system: OVCAR-5 ovarian
[36] = test system: OVCAR-8 ovarian
[37] = test system: PC-3 prostate
[38] = test system: RPMI-8226 leukemia
[39] = test system: RXF 393 renal
[40] = test system: SF-268 CNS
[41] = test system: SF-295 CNS
[42] = test system: SF-539 CNS
[43] = test system: SK-MEL-2 melanoma
[44] = test system: SK-MEL-28 melanoma
[45] = test system: SK-OV-3 ovarian
[46] = test system: SN12C renal
[47] = test system: SNB-19 CNS
[48] = test system: SNB-75 CNS
[49] = test system: SW-620 colon
[50] = test system: T-47D breast
[51] = test system: TK-10 renal
[52] = test system: U251 glioblastoma
[53] = test system: UACC-257 melanoma
[54] = test system: UACC-62 melanoma
[55] = test system: UO-31 renal

O=c1[nH]c(=O)n(C2CC(O)C(CO)O2)cc1C(F)(F)F (stereo not given)
GI50 [1]: 2.94 µM | TGI [1]: 77.6 µM | GI50 [2]: 7.94 µM | TGI [2]: > 100 µM | GI50 [3]: 2.43 µM | TGI [3]: > 100 µM | GI50 [4]: 0.519 µM | TGI [4]: 2.95 µM | GI50 [5]: 0.763 µM | TGI [5]: 9.01 µM | GI50 [6]: 4.13 µM | TGI [6]: > 100 µM | GI50 [7]: 0.234 µM | TGI [7]: 0.469 µM | GI50 [8]: 0.53 µM | TGI [8]: 8.6 µM | GI50 [9]: > 100 µM | TGI [9]: > 100 µM | GI50 [10]: 0.698 µM | TGI [10]: > 100 µM | GI50 [11]: 4.18 µM | TGI [11]: > 100 µM | GI50 [12]: 0.171 µM | TGI [12]: 0.394 µM | GI50 [13]: 2.27 µM | TGI [13]: 11 µM | GI50 [14]: 50.8 µM | TGI [14]: > 100 µM | GI50 [15]: 25.4 µM | TGI [15]: > 100 µM | GI50 [16]: 13.4 µM | TGI [16]: > 100 µM | GI50 [17]: 13 µM | TGI [17]: > 100 µM | GI50 [18]: 0.705 µM | TGI [18]: > 100 µM | GI50 [19]: 7.51 µM | TGI [19]: > 100 µM | GI50 [20]: 0.813 µM | TGI [20]: 9.83 µM | GI50 [21]: 2.42 µM | TGI [21]: 16.1 µM | GI50 [22]: 1.38 µM | TGI [22]: > 100 µM | GI50 [23]: 0.212 µM | TGI [23]: > 100 µM | GI50 [24]: 23.6 µM | TGI [24]: > 100 µM | GI50 [25]: 8.93 µM | TGI [25]: > 100 µM | GI50 [26]: 2.61 µM | TGI [26]: 19.5 µM | GI50 [27]: 0.197 µM | TGI [27]: 0.459 µM | GI50 [28]: 15.3 µM | TGI [28]: 61.2 µM | GI50 [29]: 2.06 µM | TGI [29]: 11.3 µM | GI50 [30]: 66 µM | TGI [30]: > 100 µM | GI50 [31]: 21.8 µM | TGI [31]: > 100 µM | GI50 [32]: 3.88 µM | TGI [32]: 36.5 µM | GI50 [33]: 5.96 µM | TGI [33]: > 100 µM | GI50 [34]: 88.5 µM | TGI [34]: > 100 µM | GI50 [35]: 12 µM | TGI [35]: > 100 µM | GI50 [36]: 4.72 µM | TGI [36]: 30.2 µM | GI50 [37]: 80.1 µM | TGI [37]: > 100 µM | GI50 [38]: 0.199 µM | TGI [38]: 11.5 µM | GI50 [39]: 2.48 µM | TGI [39]: 87.2 µM | GI50 [40]: 2.21 µM | TGI [40]: 14.3 µM | GI50 [41]: 3.21 µM | TGI [41]: 12.3 µM | GI50 [42]: 4.81 µM | TGI [42]: 20.4 µM | GI50 [43]: > 100 µM | TGI [43]: > 100 µM | GI50 [44]: 6.78 µM | TGI [44]: > 100 µM | GI50 [45]: 7.07 µM | TGI [45]: > 100 µM | GI50 [46]: 1.9 µM | TGI [46]: 9 µM | GI50 [47]: 3.45 µM | TGI [47]: > 100 µM | GI50 [48]: 15.9 µM | TGI [48]: > 100 µM | GI50 [49]: 1.24 µM | TGI [49]: > 100 µM | GI50 [50]: 7.65 µM | TGI [50]: > 100 µM | GI50 [51]: 14.6 µM | TGI [51]: > 100 µM | GI50 [52]: 4.87 µM | TGI [52]: 79.7 µM | GI50 [53]: 12.8 µM | TGI [53]: > 100 µM | GI50 [54]: 3.25 µM | TGI [54]: 23 µM | GI50 [55]: 2.55 µM | TGI [55]: 14.2 µM

Source: PubChem BioAssay (NCI)
